These results are taken from patent publication US20220257569A1, “INDOLE-OXADIAZOLE COMPOUNDS AND THEIR THERAPEUTIC USE” (THE GOVERNING COUNCIL OF THE UNIVERSITY OF TORONTO, priority 2018, published 2022).

The subject of series [1] is mice fed a HFD diet. Kind of series: Non-alcoholic fatty liver disease (NAFLD) model, high fat diet mice. The series is classed as in vivo. The protocol: Hepatic triglycerides were measured using an ethanolic-KOH saponification method for lysing liver tissue and hydrolyzing triglyceride molecules to release free glycerol.
Serum ALT, a marker for liver damage, was assessed using an Infinity™ ALT Liquid Stable Reagent (ThermoFisher).
A) A representative vehicle-treated liver is characterized by extensive cytoplasmic clearing indicative of both microvesicular and macrovesicular steatosis. […] Formalin-fixed livers were sectioned at […] and stained using standard H&E staining.
A) A representative vehicle-treated liver is characterized by regions of large ORO-stained vacuoles. […] Frozen OCT-fixed livers were cryosectioned at […] and stained using a conventional ORO staining technique, which stains for neutral lipids.
Diet-induced obese (DIO) mouse models can recapitulate the endocrine and metabolic dysfunction observed in obese humans, and thus serve as ideal preclinical models fortesting novel therapeutic compounds. To induce fatty liver or NAFL, male C57BL/6 mice (n=10 vehicle; n=10 CB1 NAM) are fed a high fat diet (60% calories from fat, TD.06414) for a minimum of 8 weeks starting at 6 weeks of age. Control mice (n=10; vehicle TD.08806) are fed a diet consisting of 10% calories from fat. Mice are weighed weekly to monitor weight gain, and food consumption assessed as the average amount of food consumed per day to determine a potential central effect on appetite suppression. […] Mice are dosed daily with 5 or 10 mg/kg indole-oxadiazole or vehicle (5% ethanol: 5% Tween 80:90% saline) by i.p. administration. After 28 days of administration, glucose tolerance and insulin tolerance tests are conducted on separate days. Blood is collected by terminal cardiac puncture under isoflurane anesthetic followed by cervical dislocation to collect sufficient volumes for the subsequent measurement of multiple analytes (insulin, ALT, triglycerides, adiponectin, leptin). Liver is weighed and collected in formalin (H&E staining for histopathology) and OCT (Oil Red O staining for lipid) or snap frozen for mRNA, protein and the assessment of hepatic triglycerides. Gene expression analyses is conducted to assess the levels of CB1 receptor, FAAH, and various lipogenic and fatty acid transport genes.

Series [2] relates to DATKO mice. Kind of series: Open field test in DATKO mice and WT littermates. The series is classed as in vivo. The following applies: 10 mg/kg; for Locomotor Activity (total distance traveled) / Stereotypy (total stereotypic movements) / Vertical Activity (total): mean±SEM. The text has this:
DAT1/SLC6A3 gene polymorphism associations have been identified in various psychiatric disorders, including ADHD, BD and SCZ. Also, in line with reduced functioning of the dopamine transporter (DAT) in BD patients, mice without functioning DAT display behavioural abnormalities that model mania observed in BD and that mimic positive symptoms in SCZ. These mice are accepted as a model for assessing the effects of novel small molecules that may have utility in modulating the dopamine dysfunction; deficits respond to both lithium and antipsychotics (Beaulieu et al., 2004; Gainetdinov et al., 1999; Ralph et al., 2001).
(§1) Adult (>P70) GluN1-knockdown (GluN1KD—F1: C571Bl/6J x 129S1/SvlmJ) and DAT-knockout (DATKO—C57Bl/6J), balanced for sex, were treated with either vehicle (1:1:18-Tween80:95% ethanol:saline) or a novel CB1 negative allosteric modulator (CB1 NAM), ABM300, at 10 mg/kg, was tested in behavioural assays, and compared to littermate controls. Locomotor, stereotypic movements and vertical activity were tested, along with anxiety/mania and sensorimotor gating behaviours. All data were analyzed with two- or three-way ANOVA, as appropriate, and corrected for multiple comparisons.
Classically, locomotor output has been used as a gold standard for the measure of dopamine system dysfunction. The role of dopamine in movement control is well defined and, in its simplest forms, testing for hyperactivity is based on the premise that enhanced dopaminergic activity in rodents leads to enhanced motor activity (van den Buuse et al., 2010). Locomotor, stereotypic and vertical activity was recorded using digital activity monitors, quantifying horizontal and vertical activity, along with repetitive behaviour, via infrared beam breaks. GluN1 KD and DATKO display basal hyperactivity, with increases in stereotypic behaviours which can be ameliorated with antipsychotics (Peleg-Raibstein et al., 2008).

Series [3] can be described thus: Rat liver microsomal stability assay. The series is classed as in vitro ADME. Particulars: pooled rat liver microsomes 0.5 mg/mL, 3 μM compound, NADPH, 37° C., 45 min. The protocol:
Metabolic stability of indole-oxadiazole derivatives of Formula I was measured by determination of the rate of compound disappearance when incubated in the presence of human or rat liver microsomes. Liver microsomes are prepared from the endoplasmic reticulum of hepatocytes and are the primary source of the most important enzymes (cytochrome P450) involved in drug metabolism. Study of drug stability in the presence of liver microsomes is accepted as a valuable model permitting rapid prediction of in vivo drug stability.
Human and rat liver microsomes were obtained from commercial sources. Test compounds (3 μM) were incubated with pooled liver microsomes (male and female). Samples were incubated for a 45 minute period and removed at 5 time points and test compounds were analysed by LC-MS/MS.
Microsomes (final protein concentration 0.5 mg/mL), 0.1 M phosphate buffer pH 7.4, and test compound (final concentration 3 μM; diluted from 10 mM stock solution to give a final DMSO concentration of 0.25%) were incubated at 37° C. prior to the addition of NADPH (final concentration 1 mM) to initiate the reaction. The final incubation volume was 25 μL. A control incubation was included for each compound tested, where 0.1 M phosphate buffer pH 7.4 was added instead of NADPH. The control compounds testosterone and 7-hydroxycoumarin were included in each experiment and all incubations were performed singularly for each compound.
Each compound was incubated for 0, 5, 15, 30, and 45 minutes. The control (minus NADPH) was incubated for 45 minutes only. The reactions were stopped by the addition of 50 μL methanol containing internal standard at the appropriate time points. The incubation plates were centrifuged at 2500 rpm for 20 minutes at 4° C. to precipitate the protein.
Following protein precipitation, the sample supernatants were combined in cassettes of up to 4 compounds and analysed using standard LC-MS/MS conditions.
From a plot of the natural logarithm of the peak area ratio (i.e., the ratio of compound peak area:internal standard peak area) against time, the gradient of the line was determined. Subsequently, half-life and intrinsic clearance were calculated using the equations below:
Eliminated rate constant (k)=(−gradient).

The test system of series [4] is DATKO mice. Kind of series: Pre-pulse inhibition (PPI) of acoustic startle response. In kind it is in vivo. Particulars: 10 mg/kg. The method, then: as §1
Loss of PPI is a common symptom found in SCZ and is widely accepted as an endophenotype. It is commonly considered an “interface” of psychosis and cognition. PPI deficits have been described in other psychiatric diseases; during acute mania in BD (Perry et al., 2001). PPI was measured via automated startle boxes. GluN1 KD and DATKO mice all display deficits in PPI, and this behaviour is responsive to treatment with antipsychotics.

Setting [5] is: HFD 8 weeks, then 10 mg/kg daily for 4 weeks.
The mark [6] stands for this setting: HFD 8 weeks, then 10 mg/kg daily for 4 weeks, non-fasted mice.
Where [7] appears, read: mouse model of fatty liver disease.

“Also recorded” adds a separate entry of the source.

A word on the melting point: it is the temperature, or range, at which the solid turns liquid. Turning to `CCc1c(-c2nnc(Nc3ccccc3)o2)[nH]c2ccc(Cl)cc12` [ABM300, 5-(5-Chloro-3-ethyl-1H-indol-2-yl)-N-phenyl-1,3,4-oxadiazol-2-amine], the melting point was 252 to 254 °C. Further, in series [1] (setting [5]), the “Hepatic Triglycerides” value came out at 48.9 ± 14.6 mg/g tissue weight and the “Serum ALT (ALT activity)” value stood at 18.1 ± 4.0 U/L. Besides, in series [1] (setting [6]), the “Oil Red O (ORO) stained liver sections (in words)” value is “smaller ORO-stained vacuoles”; the “effect on macrovesicular and microvesicular steatosis, H&E stained liver sections (in words)” value is “reduces the macrovesicular and microvesicular steatosis; also recorded: cytoplasmic clearing characteristic of glycogen accumulation”. For the same molecule, in series [1] (setting [7]), the “effect on levels of triglycerides (in words)” value was “significantly reduces” and the “effect on serum ALT (in words)” value is recorded as “significantly reduces”. Moreover, the “effect on hyperactivity (in words)” value in series [2] (DATKO mice) is recorded as “reduces hyperactivity”. Also, in series [2] (DATKO mice, open field), the “effect on abnormal stereotypic behaviours (in words)” value is “reduces abnormal stereotypic behaviours”, the “effect on abnormal vertical exploration (risk-taking behaviour) (in words)” value is recorded as “reduces abnormal vertical exploration”, the “Locomotor Activity (total distance traveled)” value is recorded as 13120 ± 1961 cm and the “Stereotypy (total stereotypic movements)” value was determined as 900 ± 96. Besides, the “Vertical Activity (total)” value in series [2] (DATKO mice, open field) came out at 530 ± 101. Further, in series [2] (WT (C57Bl/6J) mice, open field), the “Locomotor Activity (total distance traveled)” value stood at 1851 ± 378 cm, the “Stereotypy (total stereotypic movements)” value came out at 533 ± 69 and the “Vertical Activity (total)” value is 262 ± 69. In addition, the “Microsomal stability T1/2 Rat” value in series [3] came to 1.83 h. Besides, the “effect on sensorimotor gating deficits, pre-pulse inhibition (in words)” value in series [4] was “rescues sensorimotor gating deficits”.
